Reference: patent US20260217653A1, “CRYSTALLINE COMPOUND OF AN LPAR1 ANTAGONIST” (CONTINEUM THERAPEUTICS, INC., priority 2023, published 2026)
“Also recorded” adds a separate entry of the source.

Assays:
[1] = Bulk stability of Pattern A (XRPD, HPLC, color) after 1 week storage; assay type: physicochemical; conditions: for Bulk (XRPD) form after storage / Color after storage / Bulk (HPLC) purity after storage: Solid state, 1 week; for Bulk (HPLC) purity after storage: initial purity 99.9%
Protocol: Bulk stability of Pattern A was evaluated at 25° C./92% RH in an open container, at 40° C./75% RH in an open container, and at 60° C. in a tight container over 1 week. […] Pattern A crystalline polymorph was placed at 25° C./92% RH in an open container, at 40° C./75% RH in an open container, and at 60° C. in a closed container for 1 week. Samples after the stress were characterized by XRPD and HPLC and inspected for color change.

[2] = Water sorption and desorption (hygroscopicity) by dynamic vapor sorption (DVS); assay type: physicochemical; conditions: 25° C.
Protocol: Hygroscopicity of Pattern A was evaluated by dynamic vapor sorption (DVS) test at 25° C. with a cycle of 40→0→95→0→40% RH at a rate of change in mass per time unit of 0.002% per minute. […] It absorbed about 1.2% water at 80% RH and 3.1% water at 95% RH at 25° C. (FIG. 8). […] Water sorption and desorption behavior of Pattern A crystalline polymorph was investigated by DVS at 25° C. with a cycle of 40-0-95-0-40% RH, dm/dt 0.002, minimum equilibration time 60 min, and maximum equilibration time 360 min. XRPD was measured after the DVS test to determine form change.

[3] = Compression simulation experiments (hydraulic press, XRPD); assay type: physicochemical; conditions: for Comments (crystallinity after compression) / XRPD after compression: 5 minutes
Protocol: (§1) Feasibility of formulation process for Pattern A was evaluated by compression, grinding, and granulation simulation experiments. […] About 10 mg of Pattern A crystalline polymorph was compressed for 5 minutes under 5 MPa and 10 MPa with a hydraulic press. Potential form change and degree of crystallinity were evaluated by XRPD.

[4] = Dry grinding simulation experiments (mortar and pestle, XRPD); assay type: physicochemical
Protocol: as §1, with “20” for “10”, “ground manually” for “compressed for 5 minutes under 5 MPa and 10 MPa”, “mortar and pestle for 1, 3, and 5 min.” for “hydraulic press.”

[5] = Wet granulation simulation experiments (XRPD); assay type: physicochemical
Protocol: Feasibility of formulation process for Pattern A was evaluated by compression, grinding, and granulation simulation experiments. […] Water or ethanol was added drop wise to about 20 mg of Pattern A crystalline polymorph until the sample was wetted sufficiently. Wet sample was ground gently with a mortar and pestle. Post granulation sample was dried under ambient condition for 3 min. Potential form change and degree of crystallinity were evaluated by XRPD.

human LPAR1 = target: T1, human LPAR1 (Homo sapiens, UniProt Q92633); assay: In vitro functional assay of lysophosphatidic acid receptor 1 activity (calcium flux, Fluo-4 NW, LPA 18:1 at EC80); assay type: cell-based; conditions: B103 cells stably expressing human LPAR1
T1 construct: by own knowledge a rat neuroblastoma line
T1 sequence (Q92633 whole entry): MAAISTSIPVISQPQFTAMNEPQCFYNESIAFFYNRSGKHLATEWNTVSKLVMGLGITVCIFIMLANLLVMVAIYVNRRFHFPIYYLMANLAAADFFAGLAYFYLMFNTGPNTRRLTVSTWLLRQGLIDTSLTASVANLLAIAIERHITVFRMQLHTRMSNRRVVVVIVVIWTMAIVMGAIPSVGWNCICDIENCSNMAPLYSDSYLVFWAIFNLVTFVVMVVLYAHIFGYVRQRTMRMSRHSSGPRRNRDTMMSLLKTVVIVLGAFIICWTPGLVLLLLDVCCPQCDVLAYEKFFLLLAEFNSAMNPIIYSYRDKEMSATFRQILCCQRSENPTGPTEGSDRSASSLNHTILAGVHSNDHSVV
Protocol: Primary compound plates were prepared in 100% DMSO (Sigma-Aldrich), secondary compound plates were prepared at 10× concentration in DMEM (Invitrogen), and tertiary compound plates were prepared at 3× concentration in assay buffer containing HBSS (no Ca^+2/Mg^−2. Invitrogen) and 0.1% BSA (Sigma-Aldrich). Fluo-4 NW calcium assay dye (Invitrogen) was prepared as per manufacturer's recommendations in assay buffer. B103 cells stably expressing human LPAR1 (J. Chun lab, UCSD) were grown to confluency in DMEM media (Invitrogen) containing 10% FBS (ATCC), […] (Sigma-Aldrich) and […] (Sigma-Aldrich), and detached with Accutase (Sigma-Aldrich) prior to assay. The freshly detached cells were resuspended in growth media and plated in black, clear-bottom 96-well plates (Costar) containing compound (i.e., secondary compound plate) at a density of 5×10^4 cells/well. Once plated, cells were left at room temperature for 30 minutes and then transferred to a 37° C. 5% CO2 incubator for 24 hours. […] Finally, lysophosphatidic acid (18:1) at the EC80 concentration was added and calcium flux measured using FlexStation 3 (Molecular Devices). Sigmoidal dose-response curves were generated by measuring […] over 45 sec and calculating the area under the curve. […]

[6] = grinding time 1 min, mortar and pestle

In the case of `COc1ccc(NC(=O)N(c2ccccc2C(C)C)[C@H]2CC[C@H](C(=O)O)CC2)c(OC(F)F)n1` [Pattern A, trans-4-(3-(2-(difluoromethoxy)-6-methoxypyridin-3-yl)-1-(2-isopropylphenyl)ureido)cyclohexane-1-carboxylic acid], the “Bulk stability (physical and chemical)” value ([1]; 25° C./92% RH open container, 40° C./75% RH open container, 60° C. tight container, over 1 week) is reported as “physically and chemically stable”, the “Bulk (XRPD) form after storage” value ([1]; 25° C./92% RH, open container) is reported as “Pattern A (FIG. 7)” and the Color after storage ([1]; 25° C./92% RH, open container) is reported as “No change”. The “Bulk (HPLC) purity after storage” value ([1]; 25° C./92% RH, open container) was 99.9%, the “Bulk (XRPD) form after storage” value ([1]; 40° C./75% RH, open container) was “Pattern A (FIG. 7)” and the Color after storage ([1]; 40° C./75% RH, open container) was “No change”. For the same compound, the “Bulk (HPLC) purity after storage” value ([1]; 40° C./75% RH, open container) was 99.9%, the “Bulk (XRPD) form after storage” value ([1]; 60° C., tight container) was “Pattern A (FIG. 7)” and the Color after storage ([1]; 60° C., tight container) was “No change”. The “Bulk (HPLC) purity after storage” value ([1]; 60° C., tight container) was 99.9%, the “1st desorp. Weight % change” value ([2]; 0% RH) was 0.03% and the “1st sorp. Weight % change” value ([2]; 0% RH) was 0.03%. For the same compound, the “2nd desorp. Weight % change” value ([2]; 0% RH) was 0.00%, the “2nd sorp. Weight % change” value ([2]; 0% RH) was 0.00% and the “1st desorp. Weight % change” value ([2]; 10% RH) was 0.05%. For the same compound, the “1st sorp. Weight % change” value ([2]; 10% RH) was 0.05%, the “2nd desorp. Weight % change” value ([2]; 10% RH) was 0.02% and the “2nd sorp. Weight % change” value ([2]; 10% RH) was 0.02%. For the same compound, the “1st desorp. Weight % change” value ([2]; 20% RH) was 0.05%, the “1st sorp. Weight % change” value ([2]; 20% RH) was 0.05% and the “2nd desorp. Weight % change” value ([2]; 20% RH) was 0.03%. The “2nd sorp. Weight % change” value ([2]; 20% RH) was 0.02%, the “1st desorp. Weight % change” value ([2]; 30% RH) was 0.06% and the “1st sorp. Weight % change” value ([2]; 30% RH) was 0.05%. The “2nd desorp. Weight % change” value ([2]; 30% RH) was 0.03%, the “2nd sorp. Weight % change” value ([2]; 30% RH) was 0.02% and the “1st desorp. Weight % change” value ([2]; 40% RH) was 0.06%. For the same compound, the “1st sorp. Weight % change” value ([2]; 40% RH) was 0.05%, the “2nd desorp. Weight % change” value ([2]; 40% RH) was 0.04% and the “2nd sorp. Weight % change” value ([2]; 40% RH) was 0.03%. The “1st sorp. Weight % change” value ([2]; 50% RH) was 0.06%, the “2nd desorp. Weight % change” value ([2]; 50% RH) was 0.35% and the “1st sorp. Weight % change” value ([2]; 60% RH) was 0.06%. For the same compound, the “2nd desorp. Weight % change” value ([2]; 60% RH) was 0.64%, the “1st sorp. Weight % change” value ([2]; 70% RH) was 0.07% and the “2nd desorp. Weight % change” value ([2]; 70% RH) was 0.84%. The “1st sorp. Weight % change” value ([2]; 80% RH) was 1.15%, the “2nd desorp. Weight % change” value ([2]; 80% RH) was 1.16% and the Hygroscopicity ([2]; 80% RH) was “slightly hygroscopic”. The Water absorbed ([2]; 80% RH) was “about 1.2%”, the “1st sorp. Weight % change” value ([2]; 90% RH) was 1.93% and the “2nd desorp. Weight % change” value ([2]; 90% RH) was 1.93%. For the same compound, the “1st sorp. Weight % change” value ([2]; 95% RH) was 3.06%, the “2nd desorp. Weight % change” value ([2]; 95% RH) was 3.06% and the Hygroscopicity ([2]; 95% RH) was “hygroscopic”. The Water absorbed ([2]; 95% RH) was about 3.1%, the “XRPD after DVS test” value ([2]; after cycle 40-0-95-0-40% RH) was “still Pattern A; also recorded: No form change (FIG. 9)” and the “Comments (crystallinity after compression)” value ([3]; 5 MPa) was “Slight decrease in crystallinity; also recorded: Peaks becoming broader”. For the same compound, the XRPD after compression ([3]; 5 MPa) was “Pattern A”, the “Comments (crystallinity after compression)” value ([3]; 10 MPa) was “Slight decrease in crystallinity; also recorded: Peaks becoming broader” and the XRPD after compression ([3]; 10 MPa) was “Pattern A”. For the same compound, the “Crystallinity change upon compression” value ([3]; compression (5 MPa and 10 MPa)) was “only slight crystallinity decrease”, the “Form change upon compression” value ([3]; compression (5 MPa and 10 MPa)) was “no form change” and the “Form after manual grinding” value ([4]; after 3 minutes of grinding with a mortar and pestle) was “converted to practically amorphous form”. The “Comments (crystallinity after dry grinding)” value [4, 6] was “Peaks becoming broader; also recorded: Partial amorphization”, the “XRPD after dry grinding” value [4, 6] was “Pattern A” and the “XRPD after dry grinding” value ([4]; grinding time 3 min, mortar and pestle) was “Almost amorphous”. For the same compound, the “XRPD after dry grinding” value ([4]; grinding time 5 min, mortar and pestle) was “Almost amorphous”, the “Comments (crystallinity after wet granulation)” value ([5]; granulation solvent ethanol) was “Peaks becoming broader; also recorded: Partial amorphization; also recorded: Significant decrease in” and the “XRPD after wet granulation” value ([5]; granulation solvent ethanol) was “Pattern A”. For the same compound, the “Comments (crystallinity after wet granulation)” value ([5]; granulation solvent water) was “Significant decrease in; also recorded: Peaks becoming broader; also recorded: Partial amorphization”, the “XRPD after wet granulation” value ([5]; granulation solvent water) was “Pattern A” and the “Crystallinity/form upon wet granulation” value ([5]; wet granulation with ethanol or water) was “partial amorphization was observed”.

`COc1ccc(NC(=O)N(c2ccccc2C(C)C)[C@H]2CC[C@H](C(=O)O)CC2)c(OC(F)F)n1` [trans-4-(3-(2-(difluoromethoxy)-6-methoxypyridin-3-yl)-1-(2-isopropylphenyl)ureido)cyclohexane-1-carboxylic acid] showed an IC50 (human LPAR1) of 10 nM.
